Source: PMC4191062, “Development of αGlcN(1↔1)αMan-Based Lipid A Mimetics as a Novel Class of Potent Toll-like Receptor 4 Agonists” (Journal of Medicinal Chemistry, 2014)

Experiments:
THP-1 cells = experiment: Cytokine expression (TNF-α, IL-8, MCP-1; ELISA) in TPA-differentiated THP-1 macrophage-like cells; type: cell-based, human; settings: for activation of the MyD88 signaling pathway compared to Re-LPS/LPS: THP-1; for potency in induction of expression of IL-8 compared to Re-LPS/LPS / potency in induction of expression of TNF-α compared to Re-LPS/LPS: dose-dependent
Experimental: Lipid A mimetics 1–3 were examined for the ability to initiate the expression of tumor necrosis factor-α (TNF-α), interleukin-8 (IL-8), and monocyte chemotactic protein-1 (MCP-1) in the human monocytic macrophage-like cell line THP-1, which expresses MD-2, CD14, and a variety of cell surface receptors, including TLR4.
THP-1 cells were grown in RPMI-1640 cell-culture medium (Life Technologies) that was supplemented with 2 mM L-glutamine, 100 U/mL penicillin, 100 μg/mL streptomycin, and 10% FCS. Cells were seeded in a 96-well plate at 10^5 cells/well in 150 μL of complete medium and stimulated by 200 nM TPA for 24 h to induce the differentiation into macrophage-like cells.[59] […] Cells were stimulated with α,α-GM-LAMs 1–3 at the indicated concentration and with E. coliRe-LPS (or E. coli O111:B4 LPS), which were added as solutions in 10 μL of complete medium. The total volume of the well after stimulation reached 220 μL. The cells were incubated for 18 h, and the supernatants were analyzed for TNF-α, IL-8, and MCP-1 by ELISA (BD Biosciences).
Supplementary SI-Figure 2
E. coli wild type O111:B4 LPS is a large heterogeneous molecule with molecular weight (MW) comprising 10-15 kDa. Since we were particularly interested in the molecular recognition mechanisms implicated in the binding of LPS by the MD-2∙TLR4 complex wherein the Lipid A/Re-LPS (MW 1.8/2.2 kDa, respectively) portion of LPS is mostly involved, we have analyzed the dose-dependent THP-1 cells activation by synthetic α,α-GM-LAM 1-3 (at the concentrations 0.1 – 300 ng/ml) compared to E. coli Re-LPS which is more appropriate in this instance. Since the divergences in the expression of different cytokines by E. coli LPS vs. Re-LPS are only scarcely reported in the literature, we have performed dose-dependent activation experiments comparing expression of TNF-α, IL-8 and MCP-1 by E. coli O111:B4 LPS and E. coli Re-LPS at the concentrations 0.4 – 100 nM. Wild-type LPS (MW 10 […]
range (0.4 – 10 nM), whereas at the concentrations above 10 nM (50 nM for MCP-1) the levels of cytokines […]
This might be explained by a different aggregation state of Re-LPS and wild type LPS, and, therefore, the alterations in the transfer of a single LPS molecule to TLR4∙MD-2 complex by LBP and CD-14. Higher MW (> 10 kDa) of the LPS molecule applied for the calculations of the concentrations in [nM] would result in the shift of the activation profile induced by wild-type LPS. Calculation of EC50 values were hardly possible, since the maximum TLR4 saturation levels were not achieved at the concentrations tested.
SI-Figure 2. Dose-dependent expression of pro-inflammatory cytokines TNF-α, IL-8 and MCP-1 in human macrophage cell line THP-1 by E. coli Re-LPS compared to E. coli wild-type O111:B4 LPS. (A) Comparative expression of TNF-a; (B) comparative expression of IL-8; (C) comparative expression of MCP-1 […]
(1 picture or pasted object on this page, not shown here)
Supplementary SI-Figure 3
Dose-dependent responses (THP-1 cells: α,α-GM-LAM 1-3 and Re-LPS) at the concentration range 0.4 – 100 ng/ml which are presented in the Figure 5, were extended to the higher concentration range (up to 300 ng/ml).
SI-Figure 3. Dose-dependent expression of cytokines induced by α,α-GM-LAM 1-3 in macrophage cell line THP-1 compared to E. coli Re-LPS at the concentration range 0.4 – 300 ng/ml. (A) Production of TNF-α; (B) Induction of […]
Supplementary SI-Figure 4
Lipid A mimetic 1 was examined for the activation of NF-κB (Nuclear factor kappaB) and IRF3
(Interferon regulatory factor 3). IRF3 activation […]
noticeable after 1h stimulation, though was
LPS. At 1h stimulation the α,α-GM-LAM 1 was […]
whereas at 3h simulation compound 1 (at a […]
stronger phosphorylation of IκBa (P-IκBa levels) as well as the higher levels of IκBa (reflecting the NF-κB dependent re-synthesis of IκB following its
Thus, IRF3 activation and NF-κB activation […]
degradation and its NF-κB dependent resynthesis) […]
compared to LPS after 3h stimulation. […]

[1] = system: bone marrow-derived macrophages (BMDM); experiment: TNF-α and IL-6 production in mouse bone marrow-derived macrophages (ELISA); type: cell-based, C57BL/6J mice; settings: mBMDM
Experimental: The ability of Lipid A mimetics 1–3 to induce the production of TNF-α and IL-6 from bone marrow-derived macrophages (BMDM) in mice was subsequently examined and compared to that of synthetic E. coli Lipid A and E. coli MPLA, which are reliable positive controls due to their chemical purity and homogeneity (Figure 6). […] Likewise, 1 nM (1.8 ng/mL) of 1 or 2 triggered the release of a 3-fold higher amount of IL-6 (1500 pg/mL) compared to Lipid A (500 pg/mL).
Bone-marrow-derived microphages (BMDMs) were isolated and differentiated from the bone marrow of C57BL/6J mice. The bone marrow was flushed from femur and fibia with RPMI media. The erythrocytes were lysed with 0.88% ammonium chloride, 15 min at 37 °C. A single-cell suspension of the bone marrow cells was then seeded in cell culture flasks at a concentration of 1 × 10^6 cells/mL in RPMI supplemented with 20% FBS and 40 ng/mL recombinant M-CSF. The cell culture medium was changed on day 3. On day 6, the differentiated cells were trypsinized, counted, and seeded in 24-well plates at a concentration of 1 × 10^6 cells/mL in RPMI supplemented with 10% FBS. After 24 h, the cells were stimulated with Lipid A mimetics 1–3 and with synthetic E. coli Lipid A/MPLA (E. coli O111:B4 LPS was used as positive control) for 16 h. The nanomolar concentrations of 1–3 were calculated according to the MW of the synthetic compounds. The supernatants were then tested for cytokines using Ready-Set-Go ELISA kits (eBioscience).

CCCCCCCCCCCCCC(=O)O[C@H](CCCCCCCCCCC)CC(=O)O[C@@H]1[C@@H](NC(=O)C[C@@H](CCCCCCCCCCC)OC(=O)CCCCCCCCCCC)[C@@H](O[C@H]2O[C@H](COP(=O)(O)O)[C@@H](OC(=O)C[C@@H](CCCCCCCCCCC)OC(=O)CCCCCCCCCCC)[C@H](O)[C@@H]2OC)O[C@H](CO)[C@H]1OP(=O)(O)O [Compound 1, 4-O-[(R)-3-(Dodecanoyloxy)tetradecanoyl]-2-O-methyl-6-O-phosphoryl-α-D-mannopyranosyl-(1↔1)-2-deoxy-2-[(R)-3-(dodecanoyloxy)tetradecanoylamino]-4-O-phosphoryl-3-O-[(R)-3-(tetradecanoyloxy)tetradecanoyl]-α-D-glucopyranoside]
activation of the MyD88 signaling pathway compared to Re-LPS/LPS (THP-1 cells): more potent activators | potency in induction of expression of IL-8 compared to Re-LPS/LPS (THP-1 cells; THP-1, 18 h): higher potency | potency in induction of expression of TNF-α compared to Re-LPS/LPS (THP-1 cells; THP-1, 18 h): higher potency | fold higher amount of IL-6 compared to Lipid A ([1]; 1 nM): 3 fold

CCCCCCCCCCCCCC(=O)O[C@H](CCCCCCCCCCC)CC(=O)O[C@@H]1[C@@H](NC(=O)C[C@@H](CCCCCCCCCCC)OC(=O)CCCCCCCCCCC)[C@@H](O[C@H]2O[C@H](COP(=O)(O)O)[C@@H](OC(=O)C[C@@H](CCCCCCCCCCC)OC(=O)CCCCCCCCC)[C@H](O)[C@@H]2OC)O[C@H](CO)[C@H]1OP(=O)(O)O [Compound 2, 4-O-[(R)-3-(Decanoyloxy)tetradecanoyl]-2-O-methyl-6-O-phosphoryl-α-mannopyranosyl-(1↔1)-2-deoxy-2-[(R)-3-(dodecanoyloxy)tetradecanoylamino]-4-O-phosphoryl-3-O-[(R)-3-(tetradecanoyloxy)tetradecanoyl]-α-D-glucopyranoside]
activation of the MyD88 signaling pathway compared to Re-LPS/LPS (THP-1 cells): more potent activators | release of MCP-1 compared to Re-LPS and compound 1 (THP-1 cells; THP-1, 18 h): clearly more effective | potency in induction of expression of IL-8 compared to Re-LPS/LPS (THP-1 cells; THP-1, 18 h): higher potency | potency in induction of expression of TNF-α compared to Re-LPS/LPS (THP-1 cells; THP-1, 18 h): higher potency | fold higher amount of IL-6 compared to Lipid A ([1]; 1 nM): 3 fold

CCCCCCCCCCCCCC(=O)O[C@H](CCCCCCCCCCC)CC(=O)O[C@@H]1[C@@H](NC(=O)C[C@@H](CCCCCCCCCCC)OC(=O)CCCCCCCCCCC)[C@@H](O[C@H]2O[C@H](CO)[C@@H](OC(=O)C[C@@H](CCCCCCCCCCC)OC(=O)CCCCCCCCCCC)[C@H](O)[C@@H]2OC)O[C@H](CO)[C@H]1OP(=O)(O)O [Compound 3, 4-O-[(R)-3-(Dodecanoyloxy)tetradecanoyl]-2-O-methyl-α-D-mannopyranosyl-(1↔1)-2-deoxy-2-[(R)-3-(dodecanoyloxy)tetradecanoylamino]-4-O-phosphoryl-3-O-[(R)-3-(tetradecanoyloxy)tetradecanoyl]-α-D-glucopyranoside]
induction of the expression of cytokines (THP-1 cells; THP-1, TNF-α, IL-8, MCP-1): dampened induction | expression level of IL-6 ([1]; 1 nM): only marginal expression level | IL-6 release compared to MPLA ([1]; concentrations above 1 nM): higher IL-6 release than MPLA
